Data from ChEMBL document CHEMBL3885861, “Open TG-GATES”.

Species: Rattus norvegicus
Test: Open TG-GATES - Regimen: Daily Repeat
Type: toxicity, organism-based, Sprague-Dawley
Parameters: regimen Daily Repeat, gender Male, age 6 weeks
Settings: in vivo, po, 45 mg/kg, route gavage, dose level High; for APTT / Bas / Eos / Fbg / Hb / Ht / Lym / MCH / MCHC / MCV / Mono / Neu / PT / Plat / RBC / Ret / WBC: tissue Blood; for KIDNEY_L / KIDNEY_R / KIDNEY_TOTAL: tissue Kidney; for LIVER: tissue Liver; for A/G / ALP / ALT / AST / BUN / CRE / Ca / Cl / DBIL / GLC / IP / K / LDH / Na / PL / RALB / TBIL / TC / TG / TP / gamma-GTP: tissue Plasma

CC(=N)S [THIOACETAMIDE]
TERMINAL_BW (72 h, time 3 day): 211.8 g | APTT (72 h, time 3 day): 17.5 s | Bas (72 h, time 3 day): 0% | Eos (72 h, time 3 day): 1.4% | Fbg (72 h, time 3 day): 296 mg/dL | Hb (72 h, time 3 day): 14.4 g/dL | Ht (72 h, time 3 day): 44% | Lym (72 h, time 3 day): 75.4% | MCH (72 h, time 3 day): 20.3 pg | MCHC (72 h, time 3 day): 32.8% | MCV (72 h, time 3 day): 62.1 fL | Mono (72 h, time 3 day): 9.2% | Neu (72 h, time 3 day): 14% | PT (72 h, time 3 day): 12.4 s | Plat (72 h, time 3 day): 112.5 x10_4/uL | RBC (72 h, time 3 day): 711.2 x10_4/ul | Ret (72 h, time 3 day): 4.8% | WBC (72 h, time 3 day): 144.4 x10_2/uL | KIDNEY_L (72 h, time 3 day): 1 g | KIDNEY_R (72 h, time 3 day): 1.1 g | KIDNEY_TOTAL (72 h, time 3 day): 2.1 g | LIVER (72 h, time 3 day): 12.3 g | A/G (72 h, time 3 day): 1.8 | ALP (72 h, time 3 day): 923.2 IU/L | ALT (72 h, time 3 day): 47.8 IU/L | AST (72 h, time 3 day): 179.6 IU/L | BUN (72 h, time 3 day): 16.4 mg/dL | CRE (72 h, time 3 day): 0.6 mg/dL | Ca (72 h, time 3 day): 10.9 mg/dL | Cl (72 h, time 3 day): 104.2 meq/L | DBIL (72 h, time 3 day): 0.086 mg/dL | GLC (72 h, time 3 day): 174.8 mg/dL | IP (72 h, time 3 day): 8.1 mg/dL | K (72 h, time 3 day): 5.1 meq/L | LDH (72 h, time 3 day): 338.2 IU/L | Na (72 h, time 3 day): 136 meq/L | PL (72 h, time 3 day): 189.8 mg/dL | RALB (72 h, time 3 day): 3.7 g/dL | TBIL (72 h, time 3 day): 0.3 mg/dL | TC (72 h, time 3 day): 102 mg/dL | TG (72 h, time 3 day): 115.4 mg/dL | TP (72 h, time 3 day): 5.8 g/dL | gamma-GTP (72 h, time 3 day): 2.2 IU/L | TERMINAL_BW ([…], time 7 day): 217.5 g | TERMINAL_BW ([…], time 14 day): 249.4 g | TERMINAL_BW ([…], time 28 day): 277.2 g | APTT ([…], time 7 day): 16.5 s | Bas ([…], time 7 day): 0% | Eos ([…], time 7 day): 1% | Fbg ([…], time 7 day): 236 mg/dL | Hb ([…], time 7 day): 14.7 g/dL | Ht ([…], time 7 day): 44% | Lym ([…], time 7 day): 81% | MCH ([…], time 7 day): 20.1 pg | MCHC ([…], time 7 day): 33.5% | MCV ([…], time 7 day): 60 fL | Mono ([…], time 7 day): 5.6% | Neu ([…], time 7 day): 12.6% | PT ([…], time 7 day): 14.3 s | Plat ([…], time 7 day): 159.2 x10_4/uL | RBC ([…], time 7 day): 734.2 x10_4/ul | Ret ([…], time 7 day): 2% | WBC ([…], time 7 day): 180.4 x10_2/uL | APTT ([…], time 14 day): 16.7 s | Bas ([…], time 14 day): 0% | Eos ([…], time 14 day): 1% | Fbg ([…], time 14 day): 228.4 mg/dL | Hb ([…], time 14 day): 14.7 g/dL | Ht ([…], time 14 day): 43.7% | Lym ([…], time 14 day): 77.8% | MCH ([…], time 14 day): 19.7 pg | MCHC ([…], time 14 day): 33.5% | MCV ([…], time 14 day): 58.9 fL | Mono ([…], time 14 day): 5.4% | Neu ([…], time 14 day): 16.2% | PT ([…], time 14 day): 14.4 s | Plat ([…], time 14 day): 123.1 x10_4/uL | RBC ([…], time 14 day): 742.6 x10_4/ul | Ret ([…], time 14 day): 2.7% | WBC ([…], time 14 day): 176.2 x10_2/uL | APTT ([…], time 28 day): 17.6 s | Bas ([…], time 28 day): 0% | Eos ([…], time 28 day): 0.6% | Fbg ([…], time 28 day): 218 mg/dL | Hb ([…], time 28 day): 15.6 g/dL | Ht ([…], time 28 day): 45.4% | Lym ([…], time 28 day): 71.6% | MCH ([…], time 28 day): 18.8 pg | MCHC ([…], time 28 day): 34.5% | MCV ([…], time 28 day): 54.3 fL | Mono ([…], time 28 day): 6.6% | Neu ([…], time 28 day): 21% | PT ([…], time 28 day): 14 s | Plat ([…], time 28 day): 110.9 x10_4/uL | RBC ([…], time 28 day): 835.6 x10_4/ul | Ret ([…], time 28 day): 2.6% | WBC ([…], time 28 day): 183.8 x10_2/uL | KIDNEY_L ([…], time 7 day): 1 g | KIDNEY_R ([…], time 7 day): 1 g | KIDNEY_TOTAL ([…], time 7 day): 2 g | KIDNEY_L ([…], time 14 day): 1.2 g | KIDNEY_R ([…], time 14 day): 1.2 g | KIDNEY_TOTAL ([…], time 14 day): 2.3 g | KIDNEY_L ([…], time 28 day): 1.2 g | KIDNEY_R ([…], time 28 day): 1.2 g | KIDNEY_TOTAL ([…], time 28 day): 2.4 g | LIVER ([…], time 7 day): 11.1 g | LIVER ([…], time 14 day): 12.4 g | LIVER ([…], time 28 day): 14.3 g | A/G ([…], time 7 day): 1.9 | ALP ([…], time 7 day): 946.4 IU/L | ALT ([…], time 7 day): 23.4 IU/L | AST ([…], time 7 day): 47 IU/L | BUN ([…], time 7 day): 18.4 mg/dL | CRE ([…], time 7 day): 0.5 mg/dL | Ca ([…], time 7 day): 10.4 mg/dL | Cl ([…], time 7 day): 105.4 meq/L | DBIL ([…], time 7 day): 0.026 mg/dL | GLC ([…], time 7 day): 164.2 mg/dL | IP ([…], time 7 day): 7.3 mg/dL | K ([…], time 7 day): 4.8 meq/L | LDH ([…], time 7 day): 192.8 IU/L | Na ([…], time 7 day): 136 meq/L | PL ([…], time 7 day): 137 mg/dL | RALB ([…], time 7 day): 3.6 g/dL | TBIL ([…], time 7 day): 0.2 mg/dL | TC ([…], time 7 day): 69.8 mg/dL | TG ([…], time 7 day): 57.2 mg/dL | TP ([…], time 7 day): 5.5 g/dL | gamma-GTP ([…], time 7 day): 2 IU/L | A/G ([…], time 14 day): 2.3 | ALP ([…], time 14 day): 1052 IU/L | ALT ([…], time 14 day): 26 IU/L | AST ([…], time 14 day): 67 IU/L | BUN ([…], time 14 day): 18.6 mg/dL | CRE ([…], time 14 day): 0.6 mg/dL | Ca ([…], time 14 day): 10.2 mg/dL | Cl ([…], time 14 day): 105 meq/L | DBIL ([…], time 14 day): 0.08 mg/dL | GLC ([…], time 14 day): 165.8 mg/dL | IP ([…], time 14 day): 7.3 mg/dL | K ([…], time 14 day): 4.3 meq/L | LDH ([…], time 14 day): 161 IU/L | Na ([…], time 14 day): 135 meq/L | PL ([…], time 14 day): 154 mg/dL | RALB ([…], time 14 day): 3.7 g/dL | TBIL ([…], time 14 day): 0.3 mg/dL | TC ([…], time 14 day): 74.4 mg/dL | TG ([…], time 14 day): 83 mg/dL | TP ([…], time 14 day): 5.3 g/dL | gamma-GTP ([…], time 14 day): 2.4 IU/L | A/G ([…], time 28 day): 1.9 | ALP ([…], time 28 day): 1032 IU/L | ALT ([…], time 28 day): 31.2 IU/L | AST ([…], time 28 day): 76 IU/L | BUN ([…], time 28 day): 20.8 mg/dL | CRE ([…], time 28 day): 0.6 mg/dL | Ca ([…], time 28 day): 9.9 mg/dL | Cl ([…], time 28 day): 106 meq/L | DBIL ([…], time 28 day): 0.2 mg/dL | GLC ([…], time 28 day): 148.8 mg/dL | IP ([…], time 28 day): 6.3 mg/dL | K ([…], time 28 day): 4.4 meq/L | LDH ([…], time 28 day): 195.4 IU/L | Na ([…], time 28 day): 134 meq/L | PL ([…], time 28 day): 138.4 mg/dL | RALB ([…], time 28 day): 3.5 g/dL | TBIL ([…], time 28 day): 0.3 mg/dL | TC ([…], time 28 day): 61.4 mg/dL | TG ([…], time 28 day): 20.8 mg/dL | TP ([…], time 28 day): 5.4 g/dL | gamma-GTP ([…], time 28 day): 6 IU/L
